In paper PMC3961306, “Comparison of the Cancer Gene Targeting and Biochemical Selectivities of All Targeted Kinase Inhibitors Approved for Clinical Use” (PLoS ONE, 2014):
Like-named read-outs stand apart in the source and are kept apart here. One block for each compound: values may come before it.

Test system: forty-four human cancer cell lines
Assay: Cell proliferation assay (ATPlite, 72 hours) in the 44 cell line Oncolines panel
Format: cell-based
[1] = Homo sapiens, 769-P, cell line 769-P, read-out: cell panel IC50, 769-P
[2] = Homo sapiens, 786-0, cell line 786-0, read-out: cell panel IC50, 786-0
[3] = Homo sapiens, A 172, read-out: cell panel IC50, A-172, cell line A-172
[4] = Homo sapiens, A204, cell line A-204, read-out: cell panel IC50, A-204
[5] = Homo sapiens, A498, read-out: cell panel IC50, A-498, cell line A-498
[6] = Homo sapiens, A549, read-out: cell panel IC50, A-549, cell line A-549
[7] = Homo sapiens, A-375, cell line A375, read-out: cell panel IC50, A375
[8] = Homo sapiens, A-427, read-out: cell panel IC50, A-427, cell line A-427
[9] = Homo sapiens, ACHN, cell line ACHN, read-out: cell panel IC50, ACHN
[10] = Homo sapiens, AN3-CA, cell line AN3 CA, read-out: cell panel IC50, AN3 CA
[11] = Homo sapiens, AU565, read-out: cell panel IC50, AU-565, cell line AU-565
[12] = Homo sapiens, BT-20, cell line BT-20, read-out: cell panel IC50, BT-20
[13] = Homo sapiens, BT-549, read-out: cell panel IC50, BT-549, cell line BT-549
[14] = Homo sapiens, BXPC-3, cell line BxPC-3, read-out: cell panel IC50, BxPC-3
[15] = Homo sapiens, C-33-A, cell line C-33 A, read-out: cell panel IC50, C-33 A
[16] = Homo sapiens, CAL-27, cell line CAL 27, read-out: cell panel IC50, CAL 27
[17] = Homo sapiens, CCRF-CEM, cell line CCRF-CEM, read-out: cell panel IC50, CCRF-CEM
[18] = Homo sapiens, DLD-1, cell line DLD-1, read-out: cell panel IC50, DLD-1
[19] = Homo sapiens, FaDu, cell line FaDu, read-out: cell panel IC50, FaDu
[20] = Homo sapiens, HCT-15, cell line HCT-15, read-out: cell panel IC50, HCT-15
[21] = Homo sapiens, HCT-116, read-out: cell panel IC50, HCT-116, cell line HCT-116
[22] = Homo sapiens, Hs-578T, cell line Hs 578T, read-out: cell panel IC50, Hs 578T
[23] = Homo sapiens, Jurkat E6.1, cell line Jurkat E6.1, read-out: cell panel IC50, Jurkat E6.1
[24] = Homo sapiens, K562, read-out: cell panel IC50, K-562, cell line K-562
[25] = Homo sapiens, LS174T, read-out: cell panel IC50, LS 174T, cell line LS 174T
[26] = Homo sapiens, LoVo, cell line LoVo, read-out: cell panel IC50, LoVo
[27] = Homo sapiens, MG-63, cell line MG-63, read-out: cell panel IC50, MG-63
[28] = Homo sapiens, MOLT-4, cell line MOLT-4, read-out: cell panel IC50, MOLT-4
[29] = Homo sapiens, MeWo, cell line MeWo, read-out: cell panel IC50, MeWo
[30] = Homo sapiens, NCI-H82, cell line NCI-H82, read-out: cell panel IC50, NCI-H82
[31] = Homo sapiens, NCI-H460, cell line NCI-H460, read-out: cell panel IC50, NCI-H460
[32] = Homo sapiens, OVCAR-3, cell line OVCAR-3, read-out: cell panel IC50, OVCAR-3
[33] = Homo sapiens, RPMI-7951, cell line RPMI-7951, read-out: cell panel IC50, RPMI-7951
[34] = Homo sapiens, SHP77, cell line SHP-77, read-out: cell panel IC50, SHP-77
[35] = Homo sapiens, SK-N-AS, cell line SK-N-AS, read-out: cell panel IC50, SK-N-AS
[36] = Homo sapiens, SW48, cell line SW48, read-out: cell panel IC50, SW48
[37] = Homo sapiens, SW480, cell line SW480, read-out: cell panel IC50, SW480
[38] = Homo sapiens, SW-620, cell line SW620, read-out: cell panel IC50, SW620
[39] = Homo sapiens, U2OS, cell line U-2 OS, read-out: cell panel IC50, U-2 OS
[40] = Homo sapiens, U-87 MG, 72 h, U-87 MG cell line, ATPlite, 72 hours, read-out: IC50 in cell proliferation assay (table S5 cellpanel data)
[41] = Homo sapiens, cell line J82, read-out: cell panel IC50, J82
[42] = Homo sapiens, cell line PA-1, read-out: cell panel IC50, PA-1
[43] = Homo sapiens, cell line SJCRH30, read-out: cell panel IC50, SJCRH30
[44] = Homo sapiens, cell line SR, read-out: cell panel IC50, SR

Difference between the average IC50 in the cell panel and the most potent IC50 (44 cell line panel, Figure 2D): 10 fold
IC50 [1]: 18 nM
IC50 [2]: 15 nM
IC50 [3]: 4.63 nM
IC50 [4]: 2090 nM
IC50 [5]: 6 nM
IC50 [6]: 9 nM
IC50 [7]: 13 nM
IC50 [8]: 11 nM
IC50 [9]: 10 nM
IC50 [10]: 13 nM
IC50 [11]: 18 nM
IC50 [12]: 64 nM
IC50 [13]: 245 nM
IC50 [14]: 28 nM
IC50 [15]: 14 nM
IC50 [16]: 6 nM
IC50 [17]: 10 nM
IC50 [18]: 19 nM
IC50 [19]: 21 nM
IC50 [20]: 31 nM
IC50 [21]: 221 nM
IC50 [22]: 5.28 nM
IC50 [23]: 18 nM
IC50 [24]: 16 nM
IC50 [25]: 10 nM
IC50 [26]: 6 nM
IC50 [27]: 5.68 nM
IC50 [28]: 8 nM
IC50 [29]: 11 nM
IC50 [30]: 28 nM
IC50 [31]: 85 nM
IC50 [32]: 79 nM
IC50 [33]: 7 nM
IC50 [34]: 66 nM
IC50 [35]: 6 nM
IC50 [36]: 10 nM
IC50 [37]: < 3.16 nM
IC50 [38]: 4 nM
IC50 [39]: 53 nM
IC50 [40]: 10 nM
IC50 [41]: 11 nM
IC50 [42]: 4.74 nM
IC50 [43]: 27 nM
IC50 [44]: 12 nM
SMILES: CC(C)C[C@H](NC(=O)[C@H](Cc1ccccc1)NC(=O)c1cnccn1)B(O)O [bortezomib]

SMILES: N.N.[Cl][Pt][Cl] [cisplatin]
IC50 (U-87 MG cell line, ATPlite, 72 hours, read-out: IC50 in cell proliferation assay (table S5 cellpanel data)): > 31600 nM
IC50 (cell line 769-P, read-out: cell panel IC50, 769-P): > 31600 nM
IC50 (cell line 786-0, read-out: cell panel IC50, 786-0): 15100 nM
IC50 (cell line A375, read-out: cell panel IC50, A375): 13300 nM
IC50 (cell line A-204, read-out: cell panel IC50, A-204): > 31600 nM
IC50 (cell line ACHN, read-out: cell panel IC50, ACHN): 13500 nM
IC50 (cell line AN3 CA, read-out: cell panel IC50, AN3 CA): 27500 nM
IC50 (cell line BT-20, read-out: cell panel IC50, BT-20): > 31600 nM
IC50 (cell line BxPC-3, read-out: cell panel IC50, BxPC-3): 20200 nM
IC50 (cell line C-33 A, read-out: cell panel IC50, C-33 A): 13900 nM
IC50 (cell line CAL 27, read-out: cell panel IC50, CAL 27): 6140 nM
IC50 (cell line CCRF-CEM, read-out: cell panel IC50, CCRF-CEM): 10500 nM
IC50 (cell line DLD-1, read-out: cell panel IC50, DLD-1): > 31600 nM
IC50 (cell line FaDu, read-out: cell panel IC50, FaDu): 27300 nM
IC50 (cell line HCT-15, read-out: cell panel IC50, HCT-15): > 31600 nM
IC50 (cell line Hs 578T, read-out: cell panel IC50, Hs 578T): > 31600 nM
IC50 (cell line J82, read-out: cell panel IC50, J82): 10100 nM
IC50 (cell line Jurkat E6.1, read-out: cell panel IC50, Jurkat E6.1): 4850 nM
IC50 (cell line LoVo, read-out: cell panel IC50, LoVo): > 31600 nM
IC50 (cell line MG-63, read-out: cell panel IC50, MG-63): 8570 nM
IC50 (cell line MOLT-4, read-out: cell panel IC50, MOLT-4): 8080 nM
IC50 (cell line MeWo, read-out: cell panel IC50, MeWo): > 31600 nM
IC50 (cell line NCI-H82, read-out: cell panel IC50, NCI-H82): 19800 nM
IC50 (cell line NCI-H460, read-out: cell panel IC50, NCI-H460): 10000 nM
IC50 (cell line OVCAR-3, read-out: cell panel IC50, OVCAR-3): > 31600 nM
IC50 (cell line PA-1, read-out: cell panel IC50, PA-1): 1420 nM
IC50 (cell line RPMI-7951, read-out: cell panel IC50, RPMI-7951): 10000 nM
IC50 (cell line SHP-77, read-out: cell panel IC50, SHP-77): > 31600 nM
IC50 (cell line SJCRH30, read-out: cell panel IC50, SJCRH30): > 31600 nM
IC50 (cell line SK-N-AS, read-out: cell panel IC50, SK-N-AS): > 31600 nM
IC50 (cell line SR, read-out: cell panel IC50, SR): 4450 nM
IC50 (cell line SW48, read-out: cell panel IC50, SW48): > 31600 nM
IC50 (cell line SW480, read-out: cell panel IC50, SW480): > 31600 nM
IC50 (cell line SW620, read-out: cell panel IC50, SW620): > 31600 nM
IC50 (cell line U-2 OS, read-out: cell panel IC50, U-2 OS): > 31600 nM
IC50 (read-out: cell panel IC50, A-172, cell line A-172): > 31600 nM
IC50 (read-out: cell panel IC50, A-427, cell line A-427): > 31600 nM
IC50 (read-out: cell panel IC50, A-498, cell line A-498): 23300 nM
IC50 (read-out: cell panel IC50, A-549, cell line A-549): 15600 nM
IC50 (read-out: cell panel IC50, AU-565, cell line AU-565): 15200 nM
IC50 (read-out: cell panel IC50, BT-549, cell line BT-549): 9550 nM
IC50 (read-out: cell panel IC50, HCT-116, cell line HCT-116): > 31600 nM
IC50 (read-out: cell panel IC50, K-562, cell line K-562): > 31600 nM
IC50 (read-out: cell panel IC50, LS 174T, cell line LS 174T): 8570 nM

IC50 [1]: 10 nM
IC50 [2]: 17 nM
IC50 [3]: 3.25 nM
IC50 [4]: 3 nM
IC50 [5]: 13 nM
IC50 [6]: 2.14 nM
IC50 [7]: 5.52 nM
IC50 [8]: 3.5 nM
IC50 [9]: 21 nM
IC50 [10]: 0.902 nM
IC50 [11]: 2.22 nM
IC50 [12]: 9 nM
IC50 [13]: 2.85 nM
IC50 [14]: 3.35 nM
IC50 [15]: 2.85 nM
IC50 [16]: 1.64 nM
IC50 [17]: 6.45 nM
IC50 [18]: 23 nM
IC50 [19]: 1.18 nM
IC50 [20]: 58 nM
IC50 [21]: 2 nM
IC50 [22]: 2.13 nM
IC50 [23]: 2 nM
IC50 [24]: 2.68 nM
IC50 [25]: 2.22 nM
IC50 [26]: 8 nM
IC50 [27]: 1.08 nM
IC50 [28]: 1.74 nM
IC50 [29]: 2.63 nM
IC50 [30]: 1.37 nM
IC50 [31]: 5.57 nM
IC50 [32]: 4 nM
IC50 [33]: 1.9 nM
IC50 [34]: 138 nM
IC50 [35]: 3.37 nM
IC50 [36]: 3.39 nM
IC50 [37]: 3.34 nM
IC50 [38]: 2.25 nM
IC50 [39]: 7.41 nM
IC50 [40]: 11 nM
IC50 [41]: 15 nM
IC50 [42]: 0.943 nM
IC50 [43]: 2.45 nM
IC50 [44]: 2.17 nM
SMILES: CC(=O)O[C@@]12CO[C@@H]1C[C@H](O)[C@@]1(C)C(=O)[C@H](O)C3=C(C)[C@@H](OC(=O)[C@H](O)[C@@H](NC(=O)OC(C)(C)C)c4ccccc4)C[C@@](O)([C@@H](OC(=O)c4ccccc4)[C@H]21)C3(C)C [docetaxel]
